The structures appear in SMILES notation. pIC50: −log10 of the molar value.

T1 sequence (P43250 whole entry): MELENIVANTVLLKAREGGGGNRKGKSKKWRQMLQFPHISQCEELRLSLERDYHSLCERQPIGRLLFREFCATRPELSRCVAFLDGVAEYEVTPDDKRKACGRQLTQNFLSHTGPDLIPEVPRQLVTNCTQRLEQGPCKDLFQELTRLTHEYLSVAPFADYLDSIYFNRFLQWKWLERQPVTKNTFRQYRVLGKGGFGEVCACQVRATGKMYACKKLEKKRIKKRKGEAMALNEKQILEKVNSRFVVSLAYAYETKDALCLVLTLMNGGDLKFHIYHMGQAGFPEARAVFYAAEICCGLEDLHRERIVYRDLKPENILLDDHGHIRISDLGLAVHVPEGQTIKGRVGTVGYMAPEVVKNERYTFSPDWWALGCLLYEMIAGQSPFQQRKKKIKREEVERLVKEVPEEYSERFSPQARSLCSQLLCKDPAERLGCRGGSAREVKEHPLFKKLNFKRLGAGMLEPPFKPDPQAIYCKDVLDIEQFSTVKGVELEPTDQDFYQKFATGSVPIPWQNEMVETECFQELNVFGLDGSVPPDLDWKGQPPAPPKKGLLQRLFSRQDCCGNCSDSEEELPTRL

The first experiment has as its target T1, GRK6, recombinant full-length GST-tagged human protein (Homo sapiens, UniProt P43250).
T1 construct: Enzyme: 20 nM GRK6, recombinant full-length GST-tagged human protein; GST
Kind of experiment: GRK6 assay, IC50 determination (8-point concentration-response). The conditions noted are these: Series 1 (Table 11); 20 nM GRK6, ATP 12 μM (Km), Peptide 216 1 μM, incubation 7 h. Format: biochemical. As to the method:
The following assay conditions were used.
Buffer: 50 mM TRIS-HCl, pH 7.5, 5 mM MgCl2, 2 mM DTT, 0.01% Triton X-100, 10 μM Na3VO4, 10 μM b-GP, 1% DMSO
Enzyme: 20 nM GRK6, recombinant full-length GST-tagged human protein
Peptide substrate (Peptide 216): 1 μM
One hundred two compounds (1-1-1-102) were further characterized by determining IC50 values in a GRK6 assay. This screen has been previously described in WO 2013/063458, which is incorporated by reference in its entirety herein. Briefly, the following activities were performed: 8-point concentration-response determinations in singlicate wells (top concentration=60 μM, 3-fold dilution steps); Repeat tests for QC failed or inconclusive compounds; and Repeat tests (titrate down) for compounds with >50% inhibition at all tested concentrations.
Twelve compounds (2-1-2-12) were further characterized by determining the IC50 values in a GRK6 assay. This screen has been previously described in WO 2013/063458, which is incorporated by reference in its entirety herein. Specific activities were performed as described above (Example 18).
Thirty-six compounds (3-1-3-36) were further characterized by determining the IC50 values in a GRK6 assay. This screen has been previously described in WO 2013/063458, which is incorporated by reference in its entirety herein. Specific activities were performed as described above (Example 18).
Fifty-four compounds (4-1-4-54) were further characterized by determining the IC50 values in a GRK6 assay. This screen has been previously described in WO 2013/063458, which is incorporated by reference in its entirety herein. Specific activities were performed as described above (Example 18).
`O=C(O)CSc1nnc(-c2ccc(-c3cccc(OCc4ccc(OC(F)(F)F)c(Cl)c4)c3)o2)[nH]1` [Compound 1-84]: the pIC50 (in general, the IC50 on a negative log10 scale, so that one unit is a factor of ten) is 5.84.

Consider `O=C(O)CSc1nnc(-c2ccc(-c3ccc([N+](=O)[O-])cc3)o2)[nH]1` [Compound 1-82], for which the pIC50 is 5.88.

In the case of `O=C(O)CSc1nnc(-c2ccc(-c3cc(Cl)ccc3F)o2)[nH]1` [Compound 1-28], the pIC50 is 6.51.

Take `O=C(O)CSc1nnc(-c2ccc(-c3ccccc3C(F)(F)F)o2)[nH]1` [Compound 1-94]: the pIC50 was 5.51.

Consider `O=C(O)CSc1nnc(-c2ccc(-c3c[nH]c4ccccc34)o2)[nH]1` [Compound 1-55], for which the pIC50 is 6.25.

Take `NS(=O)(=O)c1cccc(-c2ccc(-c3nnc(SCC(=O)O)[nH]3)o2)c1` [Compound 1-45]: the negative logarithm of the IC50 (pIC50) was 6.38.

With `CCOc1ccc(-c2ccc(-c3nnc(SCC(=O)O)[nH]3)o2)cc1Cl` [Compound 1-51], the pIC50 was 6.30.

In the case of `COc1ccc(-c2ccc(-c3nnc(SCC(=O)O)[nH]3)o2)cc1` [Compound 1-81], the pIC50 is 5.92.

For the compound `O=C(O)CSc1nnc(-c2ccc(-c3ccc4[nH]cc(-c5ccccc5)c4c3)o2)[nH]1` [Compound 1-1], the pIC50 is 7.10.

For the compound `O=C(O)CSc1nnc(-c2ccc(-c3ccc4nccnc4c3)o2)[nH]1` [Compound 1-79], the pIC50 is 5.93.

For the compound `O=C(O)CSc1nnc(-c2ccc(-c3cccc(OCc4cccc(OC(F)F)c4)c3)o2)[nH]1` [Compound 1-13], the pIC50 was 6.71.

Consider `O=C(O)CSc1nnc(-c2ccc(-c3ccc(Cl)s3)o2)[nH]1` [Compound 1-76, 2-((5-(5-(5-chlorothiophen-2-yl)furan-2-yl)-4H-1,2,4-triazol-3-yl)thio)acetic acid], for which the pIC50 is 5.95.

For `CCOc1cccc(-c2ccc(-c3nnc(SCC(=O)O)[nH]3)o2)c1` [Compound 1-64], the pIC50 was 6.15.

For the compound `O=C(O)CSc1nnc(-c2ccc(-c3ccc(Cl)cc3)o2)[nH]1` [Compound 1-50], the pIC50 is 6.33.

As to `O=C(O)CSc1nnc(-c2ccc(-c3cccc4[nH]c(-c5ccccc5)cc34)o2)[nH]1` [Compound 1-5], the pIC50 was 6.86.

With `O=C(O)CSc1nnc(-c2ccc(C#Cc3ccc4ccccc4c3)o2)[nH]1` [Compound 1-19, 2-((5-(5-(naphthalen-2-ylethynyl)furan-2-yl)-4H-1,2,4-triazol-3-yl)thio)acetic acid], the pIC50 was 6.59.

As to `CCOc1ccc2ccc(-c3ccc(-c4nnc(SCC(=O)O)[nH]4)o3)cc2c1` [Compound 1-38], the pIC50 was 6.44.

As for `O=C(O)CSc1nnc(-c2ccc(-c3ccccc3[N+](=O)[O-])o2)[nH]1` [Compound 1-95], the pIC50 was 5.50.

As for `O=C(O)CSc1nnc(-c2ccc(Cn3c4ccccc4c4ccccc43)o2)[nH]1` [Compound 1-89], the pIC50 was 5.69.

For the compound `O=C(O)CSc1nnc(-c2ccc(-c3cccc4[nH]ccc34)o2)[nH]1` [Compound 1-70], the negative-log IC50 (pIC50) is 6.07.

As to `COc1ccc2cc(-c3oc(-c4nnc(SCC(=O)O)[nH]4)cc3-c3ccccc3)ccc2c1` [Compound 1-77], the pIC50 was 5.94.

As for `COc1ccc(-c2ccc(-c3nnc(SCC(=O)O)[nH]3)o2)cc1C=O` [Compound 1-17], the pIC50 was 6.61.

For `O=C(O)CSc1nnc(-c2ccc(-c3cccc(OCc4cccc(Cl)c4)c3)o2)[nH]1` [Compound 1-24], the pIC50 is 6.56.

With `COc1cc(Cl)cc(-c2ccc(-c3nnc(SCC(=O)O)[nH]3)o2)c1` [Compound 1-8], the negative logarithm of the IC50 (pIC50) was 6.77.

For the compound `O=C(O)CSc1nnc(-c2ccc(-c3ccc4sccc4c3)o2)[nH]1` [Compound 1-26], the pIC50 was 6.55.

With `O=C(O)CSc1nnc(-c2ccc(-c3cccc(O)c3)o2)[nH]1` [Compound 1-62], the pIC50 is 6.20.

Regarding `O=C(O)CSc1nnc(-c2ccc(-c3ccc4occc4c3)o2)[nH]1` [Compound 1-47], the pIC50 is 6.37.

Regarding `O=C(O)CSc1nnc(-c2cc3ccccc3o2)[nH]1` [Compound 1-86], the pIC50 is 5.80.

As for `O=C(O)CSc1nnc(-c2ccc(-c3ccc(F)c(Cl)c3)o2)[nH]1` [Compound 1-29], the negative-log IC50 (pIC50) was 6.50.

Consider `COc1ccc2cc(C#Cc3ccc(-c4nnc(SCC(=O)O)[nH]4)o3)ccc2c1` [Compound 1-11], for which the pIC50 was 6.73.

Regarding `CCCOc1ccc(-c2ccc(-c3nnc(SCC(=O)O)[nH]3)o2)cc1Cl` [Compound 1-27], the pIC50 was 6.51.

On to `O=C(O)CSc1nnc(-c2ccc(-c3ccccc3)o2)[nH]1` [Compound 1-73], for which the pIC50 was 6.00.

Regarding `N#Cc1ccc2[nH]c(-c3ccc(-c4nnc(SCC(=O)O)[nH]4)o3)cc2c1` [Compound 1-18], the pIC50 is 6.60.

As to `O=C(O)CSc1nnc(-c2ccc(-c3cc(Cl)cc(OCc4ccccc4)c3)o2)[nH]1` [Compound 1-20], the pIC50 is 6.59.

As to `O=C(O)CSc1nnc(-c2ccc(-c3cccc(OCc4cccc(C(F)(F)F)c4)c3)o2)[nH]1` [Compound 1-52], the pIC50 is 6.30.

The same experiment, now with this note: Series 2 (Table 12); conditions as Example 18.
For the compound `O=C(O)CSc1cc(-c2ccc(Br)o2)[nH]n1` [Compound 2-11], the pIC50 is 5.26.

For `COc1ccc2cc(-c3cc(SCC(=O)O)n[nH]3)ccc2c1` [Compound 2-10], the pIC50 is 5.83.

Regarding `O=C(O)CSc1cc(-c2ccc(-c3ccc4c(c3)[nH]c3ccccc34)o2)[nH]n1` [Compound 2-9], the pIC50 was 5.89.

The experiment is the same for the next values; noted with them: Series 3 (Table 13); conditions as Example 18.
For the compound `COc1ccc(C(F)(F)F)cc1-c1ccc(-c2nnc(SCc3nnn[nH]3)[nH]2)o1` [Compound 3-9], the pIC50 was 5.89.

As for `CS(=O)(=O)Nc1cccc(-c2ccc(-c3nnc(SCc4nnn[nH]4)[nH]3)o2)c1` [Compound 3-25], the pIC50 is 5.33.

As for `O=c1[nH]c2ccc(-c3ccc(-c4nnc(SCc5nnn[nH]5)[nH]4)o3)cc2[nH]1` [Compound 3-10], the negative logarithm of the IC50 (pIC50) was 5.82.

Turning to `N#Cc1cccc(-c2ccc(-c3nnc(SCc4nnn[nH]4)[nH]3)o2)c1` [Compound 3-20], the pIC50 is 5.44.

In the case of `CS(=O)(=O)c1cccc(-c2ccc(-c3nnc(SCc4nnn[nH]4)[nH]3)o2)c1` [Compound 3-31], the pIC50 is 5.13.

As to `COc1cc(-c2ccc(-c3nnc(SCc4nnn[nH]4)[nH]3)o2)cc(C(F)(F)F)c1` [Compound 3-13], the pIC50 is 5.67.

Consider `CC(=O)c1cccc(-c2ccc(-c3nnc(SCc4nnn[nH]4)[nH]3)o2)c1` [Compound 3-15], for which the pIC50 was 5.61.

Regarding `O=[N+]([O-])c1cc(-c2ccccc2)cc(-c2nnc(SCc3nnn[nH]3)[nH]2)c1` [Compound 3-36], the pIC50 was 5.04.

In the case of `CC(=O)Nc1cccc(-c2ccc(-c3nnc(SCc4nnn[nH]4)[nH]3)o2)c1` [Compound 3-23], the pIC50 was 5.42.

Turning to `COc1ccc2cc(-c3ccc(-c4nnc(SCc5nnn[nH]5)[nH]4)o3)ccc2c1` [Compound 3-11], the pIC50 is 5.82.

Still in this experiment, the particulars now being: Series 4 (Table 14); conditions as Example 18.
Regarding `NC(=O)Cn1cc(-c2nnc(SCC(=O)O)[nH]2)c2ccccc21` [Compound 4-39], the pIC50 was less than 4.00.

As for `CSc1nc(-c2nnc(SCC(=O)O)[nH]2)ccc1C#N` [Compound 4-31], the pIC50 was 4.51.

Turning to `Cn1ncc(-c2nnc(SCC(=O)O)[nH]2)c1-c1ccccc1` [Compound 4-14], the pIC50 was 5.24.

As to `CC(C)(C)C(=O)Nc1ncccc1-c1nnc(SCC(=O)O)[nH]1` [Compound 4-47], the pIC50 is less than 4.19.

On to `Cc1ncsc1-c1nnc(SCC(=O)O)[nH]1` [Compound 4-51], for which the pIC50 is less than 4.00.

As for `Cc1noc(C)c1-c1nnc(SCC(=O)O)[nH]1` [Compound 4-40], the pIC50 is less than 4.00.

`O=C(O)CSc1nnc(-c2cnn(-c3cccc(Cl)c3)c2)[nH]1` [Compound 4-6, 2-((5-(1-(3-chlorophenyl)-1H-pyrazol-4-yl)-4H-1,2,4-triazol-3-yl)thio)acetic acid]: the pIC50 was 5.70.

Consider `O=C(O)CSc1nnc(-c2[nH]ncc2Br)[nH]1` [Compound 4-23], for which the pIC50 is 4.91.

In the case of `O=C(O)CSc1nnc(-c2ccc(-c3ccccn3)s2)[nH]1` [Compound 4-16], the pIC50 is 5.18.

On to `Cn1cc(Cl)c(-c2nnc(SCC(=O)O)[nH]2)n1` [Compound 4-37], for which the pIC50 is 4.05.

As to `O=C(O)CSc1nnc(-c2ccc(Oc3ccccc3)nc2)[nH]1` [Compound 4-20], the pIC50 is 5.04.

Consider `O=C(O)CSc1nnc(-c2ccc(C(F)(F)F)nc2)[nH]1` [Compound 4-48], for which the pIC50 was less than 4.27.

Turning to `Cc1nc(-c2nnc(SCC(=O)O)[nH]2)c[nH]1` [Compound 4-52], the pIC50 is less than 4.00.

On to `O=C(O)CSc1nnc(-c2cc3ccccc3s2)[nH]1` [Compound 4-8], for which the pIC50 was 5.59.

Turning to `Cn1c(-c2nnc(SCC(=O)O)[nH]2)cc2ccccc21` [Compound 4-34], the pIC50 was 4.41.

As to `Cc1ccc2sc(-c3nnc(SCC(=O)O)[nH]3)cc2c1` [Compound 4-9], the pIC50 was 5.58.

The values are drawn from US9902739B2, “Small molecule inhibitors of G protein coupled receptor 6 kinases polypeptides” (Mayo Foundation for Medical Education and Research, priority 2014, dated 2018).
